Results reported in patent US20120190752A1, “EXO-S-MECAMYLAMINE METHOD, USE, AND COMPOUND FOR TREATMENT” (Targacept Inc., priority 2009, published 2012).

Tested on: subjects with major depressive disorder (MDD) who were inadequate responders to citalopram
Experiment: MADRS total score, Phase 2b add-on trial
Assay type: in vivo, human
Description: The Montgomery-Asberg Depression Rating Scale (abbreviated MADRS) is a ten-item diagnostic questionnaire which psychiatrists may use to measure the severity of depressive episodes in patients with mood disorders (Montgomery et al. 1979). It was designed in 1979 by British and Swedish researchers as an adjunct to the Hamilton Rating Scale for Depression (HAMD) which would be more sensitive to the changes brought on by antidepressants and other forms of treatment than the HAMD. There is, however, a high degree of statistical correlation between scores on the two measures. In more detail, a multi-center double-blind, randomized, placebo-controlled, parallel group, flexible dose titration study of TC-5214 as adjunctive therapy in subjects with major depressive disorder (MDD) who were inadequate responders to citalopram was conducted in centers in the US and India. The study consisted of a screening period, baseline/washout period, open-label phase, double-blind phase, and a follow-up visit. Subject participation in the study could continue for up to 16 weeks of treatment. Following a washout period of up to 28 days for other antidepressants, subjects with MDD and a MADRS total score >/=28 and a Clinical Global Impression-Severity (CGI-S) score >/=4 were enrolled on Day 1 into an open-label citalopram-only phase of the study. This phase lasted 8 weeks, with citalopram (CIT) dose increased from a once-daily dose of 20 mg (Day 1 through Week 4) to 40 mg (Week 4 through Week 8). A total of 579 subjects entered the open-label citalopram phase. At Week 8, subjects who tolerated 40 mg CIT, but whose MADRS score was reduced <50% from baseline and no lower than 17, and CGI-S≧4, were considered inadequate responders. These subjects (n=270) were randomized in a double-blind fashion to receive either placebo or TC-5214-23 as add-on therapy to continued CIT. The double-blind phase of the study also lasted 8 weeks (Week 8 to Week 16). Study drug, TC-5214-23 or placebo, was started at 2 mg daily (1 mg twice per day [BID] dosing), added on to continuing CIT (40 mg PO qd). After 2 weeks of treatment, the dose of TC-5214 could be increased to 4 mg (2 mg BID) or continued unchanged, with up-titration based upon good tolerability and inadequate therapeutic response. After a further 2 weeks, the dose of TC-5214 could be increased again to 8 mg (4 mg BID) if judged appropriate by the investigator, based upon good tolerability and inadequate therapeutic response. At any time during the double-blind phase of the study, placebo or TC-5214-23 could be reduced to the previous dose level following the emergence of unacceptable adverse events (AEs). […] At this follow-up, any signs or symptoms of relapse were evaluated. If a subject was prematurely discontinued from the study between Week 8 and Week 16 for any reason, the investigator was to make every effort to perform all evaluations as per protocol, assuming the subject had reached the end of the double-blind add-on treatment phase. These evaluations were to be made as soon as possible and within 2 weeks of discontinuation. […] There was no meaningful difference in results as a function of age, gender, site, or smoking status. With regard to efficacy endpoints, the following tables present efficacy used in the ITT (Intent-to-Treat) and PP (Per Protocol) populations unless otherwise specific. The primary inference was based upon Week 16 visit using the ITT population. Change from baseline was obtained by subtracting the baseline values from the individual on-treatment values. Change from Week 16 was obtained by subtracting the Week 16 values from the individual follow-up visit (Week 18/19) values. If either the baseline or Week 16 or on-treatment or follow-up value was missing, the change from baseline or Week 16 value was also set to missing. […]

[1] = ITT (N = 133), Double Blind Week 16
[2] = ITT (N = 133), Double Blind Week 18 (Follow-up)
[3] = ITT and PP populations, result in words
[4] = ITT population, Week 8 (double-blind baseline) to Week 16
[5] = ITT, Double Blind Week 18 LOCF (Follow-up), change from Week 16
[6] = PP (N = 113), Double Blind Week 16
[7] = PP (N = 113), Double Blind Week 18 (Follow-up)
[8] = PP, Double Blind Week 16 LOCF (change from Week 8)
[9] = PP, Double Blind Week 18 LOCF (Follow-up), change from Week 16

CNC1(C)C2CCC(C2)C1(C)C (stereo in doubt) [TC-5214, (S)—N,2,3,3-tetramethylnorbornan-2-amine]
MADRS reduction from baseline ≧50%: Subjects with Response (number) [1]: 89
MADRS reduction from baseline ≧50%: Subjects with Response (percentage) [1]: (67%)
MADRS reduction from baseline ≧50%: Subjects without Response (number) [1]: 44
MADRS reduction from baseline ≧50%: Subjects without Response (percentage) [1]: (33%)
MADRS ≦10: Subjects with Remission (number) [1]: 69
MADRS ≦10: Subjects with Remission (percentage) [1]: (52%)
MADRS ≦10: Subjects without Remission (number) [1]: 64
MADRS ≦10: Subjects without Remission (percentage) [1]: (48%)
MADRS ≦12: Subjects with Remission (number) [1]: 77
MADRS ≦12: Subjects with Remission (percentage) [1]: (58%)
MADRS ≦12: Subjects without Remission (number) [1]: 56
MADRS ≦12: Subjects without Remission (percentage) [1]: (42%)
MADRS reduction from baseline ≧50%: Subjects with Response (number) [2]: 94
MADRS reduction from baseline ≧50%: Subjects with Response (percentage) [2]: (71%)
MADRS reduction from baseline ≧50%: Subjects without Response (number) [2]: 39
MADRS reduction from baseline ≧50%: Subjects without Response (percentage) [2]: (29%)
MADRS ≦10: Subjects with Remission (number) [2]: 73
MADRS ≦10: Subjects with Remission (percentage) [2]: (55%)
MADRS ≦10: Subjects without Remission (number) [2]: 60
MADRS ≦10: Subjects without Remission (percentage) [2]: (45%)
MADRS ≦12: Subjects with Remission (number) [2]: 86
MADRS ≦12: Subjects with Remission (percentage) [2]: (65%)
MADRS ≦12: Subjects without Remission (number) [2]: 47
MADRS ≦12: Subjects without Remission (percentage) [2]: (35%)
MADRS remission (≦10 or ≦12) proportion compared with placebo [3]: higher proportion of subjects meeting the remission criteria
MADRS responders (reduction from baseline ≧50%) proportion compared with placebo [3]: higher proportion of responders
MADRS total score change from baseline compared with placebo [3]: statistically significant decreases (improvements)
MADRS Total Score: Adjusted Mean Change TC-5214—Placebo (SD) [4]: −7.54 (10.13)
MADRS Total Score: Effect Size [4]: 0.74
MADRS Mean Difference between TC-5214 and Placebo (ITT, Double Blind Week 16 LOCF (change from Week 8)): 7.54
MADRS Adjusted Mean change [5]: −0.87
MADRS Mean Difference between TC-5214 and Placebo [5]: −0.54
MADRS Difference vs Placebo + CIT (ITT, Week 8 to Week 16 LOCF): −7.45
MADRS Adj. Mean change (ITT, change from Week 8 (double-blind baseline) to Week 16 LOCF, add-on to citalopram): −17.26
MADRS reduction from baseline ≧50%: Subjects with Response (number) [6]: 84
MADRS reduction from baseline ≧50%: Subjects with Response (percentage) [6]: (74%)
MADRS reduction from baseline ≧50%: Subjects without Response (number) [6]: 29
MADRS reduction from baseline ≧50%: Subjects without Response (percentage) [6]: (26%)
MADRS ≦10: Subjects with Remission (number) [6]: 67
MADRS ≦10: Subjects with Remission (percentage) [6]: (59%)
MADRS ≦10: Subjects without Remission (number) [6]: 46
MADRS ≦10: Subjects without Remission (percentage) [6]: (41%)
MADRS ≦12: Subjects with Remission (number) [6]: 72
MADRS ≦12: Subjects with Remission (percentage) [6]: (64%)
MADRS ≦12: Subjects without Remission (number) [6]: 41
MADRS ≦12: Subjects without Remission (percentage) [6]: (36%)
MADRS reduction from baseline ≧50%: Subjects with Response (number) [7]: 89
MADRS reduction from baseline ≧50%: Subjects with Response (percentage) [7]: (79%)
MADRS reduction from baseline ≧50%: Subjects without Response (number) [7]: 24
MADRS reduction from baseline ≧50%: Subjects without Response (percentage) [7]: (21%)
MADRS ≦10: Subjects with Remission (number) [7]: 70
MADRS ≦10: Subjects with Remission (percentage) [7]: (62%)
MADRS ≦10: Subjects without Remission (number) [7]: 43
MADRS ≦10: Subjects without Remission (percentage) [7]: (38%)
MADRS ≦12: Subjects with Remission (number) [7]: 81
MADRS ≦12: Subjects with Remission (percentage) [7]: (72%)
MADRS ≦12: Subjects without Remission (number) [7]: 32
MADRS ≦12: Subjects without Remission (percentage) [7]: (28%)
MADRS Adjusted Mean change [8]: −19.34
MADRS Mean Difference between TC-5214 and Placebo [8]: 7.97
MADRS Adjusted Mean change [9]: −1.10
MADRS Mean Difference between TC-5214 and Placebo [9]: −0.20
